Measurements: ChEMBL document CHEMBL1129117 (Bioorg Med Chem Lett, 1996)

Legend:
[1] = biological target: T1, Angiotensin-converting enzyme (Rattus norvegicus, UniProt P47820); assay: Compound was measured for the inhibition of Angiotensin I converting enzyme
T1 sequence (P47820 whole entry): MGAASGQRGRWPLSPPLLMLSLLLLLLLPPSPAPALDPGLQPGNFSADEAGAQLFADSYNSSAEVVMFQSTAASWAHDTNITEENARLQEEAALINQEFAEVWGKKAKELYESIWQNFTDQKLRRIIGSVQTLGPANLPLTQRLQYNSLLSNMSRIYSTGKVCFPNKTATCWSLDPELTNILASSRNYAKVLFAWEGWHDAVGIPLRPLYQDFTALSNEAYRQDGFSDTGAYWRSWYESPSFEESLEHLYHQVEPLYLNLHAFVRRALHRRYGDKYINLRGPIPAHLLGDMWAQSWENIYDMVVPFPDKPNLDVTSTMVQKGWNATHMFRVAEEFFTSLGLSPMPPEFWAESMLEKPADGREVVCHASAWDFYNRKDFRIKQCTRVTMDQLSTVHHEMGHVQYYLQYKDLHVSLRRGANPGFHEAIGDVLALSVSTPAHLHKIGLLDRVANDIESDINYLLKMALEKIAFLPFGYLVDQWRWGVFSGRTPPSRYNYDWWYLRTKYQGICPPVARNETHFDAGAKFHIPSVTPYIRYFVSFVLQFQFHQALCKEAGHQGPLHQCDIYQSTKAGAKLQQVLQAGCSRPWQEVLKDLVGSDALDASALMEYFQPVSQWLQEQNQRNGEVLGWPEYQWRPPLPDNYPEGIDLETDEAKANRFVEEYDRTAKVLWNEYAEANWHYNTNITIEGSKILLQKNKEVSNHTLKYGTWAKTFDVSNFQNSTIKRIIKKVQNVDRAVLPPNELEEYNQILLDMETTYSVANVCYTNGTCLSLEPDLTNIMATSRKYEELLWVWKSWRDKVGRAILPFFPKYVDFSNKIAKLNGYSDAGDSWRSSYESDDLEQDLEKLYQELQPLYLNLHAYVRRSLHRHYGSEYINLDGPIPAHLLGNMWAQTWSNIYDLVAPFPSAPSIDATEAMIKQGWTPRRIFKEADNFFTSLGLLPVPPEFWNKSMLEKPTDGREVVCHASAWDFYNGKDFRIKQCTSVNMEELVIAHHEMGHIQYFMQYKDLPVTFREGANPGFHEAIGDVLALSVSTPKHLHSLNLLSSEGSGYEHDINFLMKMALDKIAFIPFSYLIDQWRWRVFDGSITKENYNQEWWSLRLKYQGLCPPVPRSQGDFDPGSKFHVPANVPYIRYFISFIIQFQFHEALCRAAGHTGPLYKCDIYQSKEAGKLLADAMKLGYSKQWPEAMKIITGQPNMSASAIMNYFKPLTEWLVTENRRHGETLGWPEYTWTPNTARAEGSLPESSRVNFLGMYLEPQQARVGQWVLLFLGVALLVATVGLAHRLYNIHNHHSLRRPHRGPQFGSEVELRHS

Neprilysin = biological target: T2, Neprilysin (Rattus norvegicus, UniProt P07861); assay: Compound was measured for the inhibition of neutral endopeptidase 24.11(NEP).
T2 sequence (P07861 whole entry): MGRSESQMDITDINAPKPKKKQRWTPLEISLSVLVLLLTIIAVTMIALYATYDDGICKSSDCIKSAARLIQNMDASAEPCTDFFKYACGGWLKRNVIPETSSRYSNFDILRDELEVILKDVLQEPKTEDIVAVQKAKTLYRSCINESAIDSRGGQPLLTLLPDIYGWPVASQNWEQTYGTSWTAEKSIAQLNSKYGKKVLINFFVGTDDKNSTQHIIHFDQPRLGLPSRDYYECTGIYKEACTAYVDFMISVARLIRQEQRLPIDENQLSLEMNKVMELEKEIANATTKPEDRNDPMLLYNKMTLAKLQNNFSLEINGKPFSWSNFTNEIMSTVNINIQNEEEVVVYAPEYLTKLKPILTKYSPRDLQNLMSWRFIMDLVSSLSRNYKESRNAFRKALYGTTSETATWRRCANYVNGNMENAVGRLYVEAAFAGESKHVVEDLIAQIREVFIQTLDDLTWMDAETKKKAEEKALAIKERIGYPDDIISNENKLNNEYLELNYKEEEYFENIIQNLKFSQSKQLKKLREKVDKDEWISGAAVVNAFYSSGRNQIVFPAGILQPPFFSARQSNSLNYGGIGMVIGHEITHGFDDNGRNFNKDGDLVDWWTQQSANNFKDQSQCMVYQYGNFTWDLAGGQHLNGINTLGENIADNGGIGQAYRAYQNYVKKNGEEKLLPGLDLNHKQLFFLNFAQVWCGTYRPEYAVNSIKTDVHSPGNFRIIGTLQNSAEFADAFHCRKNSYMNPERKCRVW

Compound	IC50 [1]	IC50 (Neprilysin)
O=C(N[C@@H](Cc1ccccc1)P(=O)(O)CC1(C(=O)N[C@@H](Cc2c[nH]c3ccccc23)C(=O)O)CCCC1)c1ccc([N+](=O)[O-])cc1	1.5 nM	55 nM
CS(=O)(=O)N[C@@H](CCCCN)C(=O)N[C@@H](Cc1ccccc1)P(=O)(O)CC1(C(=O)N[C@@H](Cc2c[nH]c3ccccc23)C(=O)O)CCCC1	2.5 nM	90 nM
